Data published in the supplement of paper PMC8617591.

Columns and labels:
[1] = tested on: Mycobacterium tuberculosis Erdman (autoluminescent); experiment: AUC25, normalised area under dose response up to IC25 (three-drug combination) (fraction (0-1)); higher = more potent at low dose
Procedure: (§1)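 DiaMOND equipotent three-drug combination dose responses (10 doses, 1.5- or 2-fold spacing, centred on IC90) against autoluminescent M. tuberculosis Erdman in 8 in vitro models. Read-out is OD600, or luminescence for the intracellular and dormancy models, normalised to untreated wells. Hill-fit Einf, AUC25 and GRinf are potency metrics; FIC50 and FIC90 are total Loewe fractional inhibitory concentrations as log2 (negative = synergy).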

[2] = tested on: Mycobacterium tuberculosis Erdman (autoluminescent); experiment: GRinf, maximum normalised growth rate inhibition (three-drug combination) (unitless (-1 to 1)); higher = less effect (negative = killing)
Procedure: as §1

[3] = tested on: Mycobacterium tuberculosis Erdman (autoluminescent); experiment: total FIC90 (Loewe) at 90% inhibition, three-drug combination (log2); higher = more antagonistic
Procedure: as §1

[4] = tested on: Mycobacterium tuberculosis Erdman (autoluminescent); experiment: total FIC50 (Loewe) at 50% inhibition, three-drug combination (log2); higher = more antagonistic
Procedure: as §1

[5] = tested on: Mycobacterium tuberculosis Erdman (autoluminescent); experiment: Einf, fitted maximum growth inhibition of three-drug combination (fraction); higher = stronger maximal inhibition
Procedure: as §1

CC(=O)NC[C@H]1CN(c2ccc(N3CCOCC3)c(F)c2)C(=O)O1 [linezolid] + CO[C@H]1/C=C/O[C@@]2(C)Oc3c(C)c(O)c4c(O)c(c(/C=N/N5CCN(C6CCCC6)CC5)c(O)c4c3C2=O)NC(=O)/C(C)=C\C=C\[C@H](C)[C@H](O)[C@@H](C)[C@@H](O)[C@@H](C)[C@H](OC(C)=O)[C@@H]1C [rifapentine] + CO[C@H]1/C=C/O[C@@]2(C)Oc3c(C)c(O)c4c(O)c(c(/C=N/N5CCN(C)CC5)c(O)c4c3C2=O)NC(=O)/C(C)=C\C=C\[C@H](C)[C@H](O)[C@@H](C)[C@@H](O)[C@@H](C)[C@H](OC(C)=O)[C@@H]1C [rifampicin]
Details | AUC25, [1] | Einf, [5] | GRinf, [2] | total FIC50, [4] | total FIC90, [3]
in vitro model: acidic pH 5.7, time point: constant (~7 days, model-specific) | 0.0833 | 0.893 | -0.162 | 0.407 | –
in vitro model: acidic pH 5.7, time point: terminal (~4-5 doublings, model-specific) | 0.0709 | 0.979 | -0.204 | 0.327 | 0.0907
in vitro model: intracellular J774, time point: constant = terminal | – | 0.93 | -0.12 | – | -0.258

Details | AUC25, [1] | Einf, [5] | GRinf, [2] | total FIC50, [4] | total FIC90, [3]
in vitro model: butyrate, time point: constant (~7 days, model-specific) | 0.0767 | 0.869 | 0.14 | 0.125 | –
in vitro model: butyrate, time point: terminal (~4-5 doublings, model-specific) | 0.0594 | 0.933 | 0.106 | 0.0289 | -0.462
in vitro model: cholesterol 0.05 mM, time point: constant (~7 days, model-specific) | 0.147 | 0.654 | -0.259 | 0.106 | –
in vitro model: cholesterol 0.05 mM, time point: terminal (~4-5 doublings, model-specific) | 0.127 | 0.909 | -0.305 | -0.0658 | 0.0643
in vitro model: cholesterol-high 0.2 mM, time point: constant (~7 days, model-specific) | 0.104 | 0.934 | -0.348 | 0.114 | 0.179
in vitro model: cholesterol-high 0.2 mM, time point: terminal (~4-5 doublings, model-specific) | 0.0979 | 1 | -0.881 | 0.344 | 0.213
in vitro model: dormancy (butyrate + nitrate, low O2), time point: constant (~7 days, model-specific) | 0.0711 | 0.884 | 0.158 | 0.564 | 0.837
in vitro model: dormancy (butyrate + nitrate, low O2), time point: terminal (~4-5 doublings, model-specific) | 0.0539 | 0.965 | -0.00168 | -0.00521 | 0.318
in vitro model: standard 7H9 glycerol, time point: constant = terminal | 0.0512 | 0.879 | 0.155 | 0.208 | –
in vitro model: valerate, time point: constant (~7 days, model-specific) | 0.0508 | 0.862 | 0.0506 | 0.124 | –
in vitro model: valerate, time point: terminal (~4-5 doublings, model-specific) | 0.029 | 0.933 | 0.0203 | 0.039 | -0.378

COc1nc2ccc(Br)cc2cc1[C@@H](c1ccccc1)[C@@](O)(CCN(C)C)c1cccc2ccccc12 [bedaquiline] + COc1c(N2C[C@@H]3CCCN[C@@H]3C2)c(F)cc2c(=O)c(C(=O)O)cn(C3CC3)c12 [moxifloxacin] + O=[N+]([O-])c1cn2c(n1)OC[C@@H](OCc1ccc(OC(F)(F)F)cc1)C2 [pretomanid]
Details | AUC25, [1] | Einf, [5] | GRinf, [2] | total FIC50, [4] | total FIC90, [3]
in vitro model: acidic pH 5.7, time point: constant (~7 days, model-specific) | 0.1 | 0.838 | -0.377 | 0.596 | –
in vitro model: acidic pH 5.7, time point: terminal (~4-5 doublings, model-specific) | 0.0692 | 0.971 | -0.329 | 0.946 | 0.743
in vitro model: intracellular J774, time point: constant = terminal | – | 0.972 | -0.42 | – | 0.518

Details | AUC25, [1] | Einf, [5] | GRinf, [2] | total FIC50, [4] | total FIC90, [3]
in vitro model: butyrate, time point: constant (~7 days, model-specific) | 0.11 | 0.974 | -0.202 | 0.96 | 1.4
in vitro model: butyrate, time point: terminal (~4-5 doublings, model-specific) | 0.0807 | 0.979 | -0.386 | 1.02 | 1.52
in vitro model: cholesterol 0.05 mM, time point: constant (~7 days, model-specific) | 0.102 | 0.689 | -0.187 | 0.771 | –
in vitro model: cholesterol 0.05 mM, time point: terminal (~4-5 doublings, model-specific) | 0.0953 | 0.946 | -0.21 | 0.672 | 0.565
in vitro model: cholesterol-high 0.2 mM, time point: constant (~7 days, model-specific) | 0.0866 | 0.945 | -0.309 | 0.743 | 1.24
in vitro model: cholesterol-high 0.2 mM, time point: terminal (~4-5 doublings, model-specific) | 0.082 | 1 | -0.571 | 0.598 | 0.93
in vitro model: dormancy (butyrate + nitrate, low O2), time point: constant (~7 days, model-specific) | 0.0412 | 0.905 | 0.272 | 0.0257 | -0.733
in vitro model: dormancy (butyrate + nitrate, low O2), time point: terminal (~4-5 doublings, model-specific) | 0.0577 | 0.995 | -0.1 | 0.157 | 0.118
in vitro model: standard 7H9 glycerol, time point: constant = terminal | 0.08 | 0.98 | -0.122 | -0.0856 | -0.137
in vitro model: valerate, time point: constant (~7 days, model-specific) | 0.123 | 0.932 | -0.393 | 0.261 | –
in vitro model: valerate, time point: terminal (~4-5 doublings, model-specific) | 0.0843 | 0.956 | -0.165 | 0.431 | 0.866
